In brackets after ≈: the same amount, converted by molar mass. Activity calls are given as the source filed them. The calls are words filed in the database; no cut-off is given here.
Key:
L1210 [1] = assay: In vivo antitumor activity against mouse L1210 cells allografted in BDF1 mouse at 400 mg/kg, ip administered as single dose as suspension in saline; assay type: functional, organism-based; design: dose 400 mg/kg
L1210 [2] = assay: In vivo antitumor activity against mouse L1210 cells allografted in BDF1 mouse at 400 mg/kg, ip administered as nine doses as suspension in klucel; assay type: functional, organism-based; design: dose 400 mg/kg
L1210 [3] = assay: In vivo antitumor activity against mouse L1210 cells allografted in BDF1 mouse at 200 mg/kg, ip administered as nine doses as suspension in saline with Tween 80; assay type: functional, organism-based; design: dose 200 mg/kg
KB = assay: In vitro antitumor activity against human KB cells treated as an alcoholic solution; assay type: functional; conditions: read-out: ED50 (the source's name)
L1210 [4] = assay: In vivo antitumor activity against mouse L1210 cells allografted in BDF1 mouse at 400 mg/kg, ip administered as three doses as suspension in klucel; assay type: functional, organism-based; design: dose 400 mg/kg
P388 [5] = assay: In vivo antitumor activity against mouse P388 cells allografted in BDF1 mouse at 400 mg/kg, ip administered as three doses as suspension in klucel; assay type: functional, organism-based; design: dose 400 mg/kg
L1210 [6] = assay: In vivo antitumor activity against mouse L1210 cells allografted in BDF1 mouse at 400 mg/kg, ip administered as single dose as suspension in CMC; assay type: functional, organism-based; design: dose 400 mg/kg
P388 [7] = assay: In vivo antitumor activity against mouse P388 cells allografted in CDF1 mouse at 200 mg/kg, ip administered as nine doses as suspension in klucel; assay type: functional, organism-based; design: dose 200 mg/kg

Question: How did the Activity (L1210 [1]) turn out when `CS(=O)(=O)OCCC(COS(C)(=O)=O)S(=O)(=O)Cc1ccccc1` (racemic) was run?
Answer: inactive

Question: `COc1ccc(OCCS(=O)(=O)C(CCOS(C)(=O)=O)COS(C)(=O)=O)cc1` (racemic) was tested. Which Activity (L1210 [2]) did it give?
Answer: inactive

Question: `CS(=O)(=O)OCCC(COS(C)(=O)=O)S(=O)(=O)CCCOc1ccccc1-c1ccccc1` (racemic) was tested. Which Activity (L1210 [3]) did it give?
Answer: inactive

Question: How did the Activity (L1210 [1]) turn out when `CCCCS(=O)(=O)C(CCOS(C)(=O)=O)COS(C)(=O)=O` (racemic) was run?
Answer: inactive

Question: For `CCCCCCCCCCCS(=O)(=O)C(CCOS(C)(=O)=O)COS(C)(=O)=O` (racemic), which EC50 (KB) is on record?
Answer: 31 µg/mL (≈ 66.7 µM)

Question: What about the Activity (L1210 [4]) of the same compound?
Answer: inactive

Question: And the Activity (P388 [5])?
Answer: inactive

Question: Which Activity (L1210 [6]) does the source give for `CS(=O)(=O)OCCC(COS(C)(=O)=O)S(=O)(=O)c1ccccc1` (racemic) here?
Answer: inactive

Question: Which Activity (P388 [7]) does the source give for `COc1ccccc1C(=O)Nc1cc2c(cc1N1CCNCC1C)n(C)c(=O)n2C` (racemic) here?
Answer: inactive

Reference: ChEMBL document CHEMBL3244182, “Potential bis-alkylating agents for cancer chemotherapy. Approaches to the synthesis of 2-sulfonyl-1,4-bis(methanesulfonoxy)butanes” (1978)
